Results from ChEMBL document CHEMBL4811278, “Discovery of novel modulators for the PPARα (peroxisome proliferator activated receptor α): Potential therapies for nonalcoholic fatty liver disease” (Bioorg Med Chem, 2021).
Active and inactive are the calls of the source. The rule behind the calls is not given here.

Columns and labels:
[1] = target: T1, Peroxisome proliferator-activated receptor alpha (Homo sapiens, UniProt Q07869); test: Agonist activity at Gal4-fused human PPARalpha co-expressed with RXRalpha in monkey CV1 cells assessed as PPRE transcriptional activation incubated for 45 hrs by luciferase reporter gene assay; assay type: cell-based, CV-1
T1 sequence (Q07869 whole entry): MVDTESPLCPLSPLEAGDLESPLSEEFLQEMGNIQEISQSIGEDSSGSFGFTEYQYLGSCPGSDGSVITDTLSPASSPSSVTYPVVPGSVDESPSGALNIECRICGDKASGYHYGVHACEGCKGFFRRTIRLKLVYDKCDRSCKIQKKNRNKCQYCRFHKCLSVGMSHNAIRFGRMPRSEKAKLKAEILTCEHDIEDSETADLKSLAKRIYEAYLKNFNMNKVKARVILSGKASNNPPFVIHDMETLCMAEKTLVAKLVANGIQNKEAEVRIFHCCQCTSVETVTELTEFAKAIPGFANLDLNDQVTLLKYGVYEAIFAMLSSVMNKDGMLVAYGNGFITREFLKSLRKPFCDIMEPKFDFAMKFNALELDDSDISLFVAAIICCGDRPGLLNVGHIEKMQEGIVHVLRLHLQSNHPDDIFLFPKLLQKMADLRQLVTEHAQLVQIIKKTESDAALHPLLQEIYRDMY

Mus musculus [2] = test: Hypolipidemic activity in high fat diet-induced nonalcoholic steatohepatitis C57BL/6J mouse model assessed as reduction in plasma triglyceride level at 3 mg/kg, po administered via gavage and measured after 24 hrs; assay type: functional
[3] = target: T2, Peroxisome proliferator-activated receptor alpha (Mus musculus) (UniProt P23204); test: In vivo agonist activity at PPARalpha in high fat diet-induced nonalcoholic steatohepatitis C57BL/6J mouse model assessed as trans-repression of ApoC3 mRNA expression in liver administered at 3 mg/kg, po and measured after 24 hrs by quantitative real time PCR analysis; assay type: functional, organism-based
T2 sequence (whole entry): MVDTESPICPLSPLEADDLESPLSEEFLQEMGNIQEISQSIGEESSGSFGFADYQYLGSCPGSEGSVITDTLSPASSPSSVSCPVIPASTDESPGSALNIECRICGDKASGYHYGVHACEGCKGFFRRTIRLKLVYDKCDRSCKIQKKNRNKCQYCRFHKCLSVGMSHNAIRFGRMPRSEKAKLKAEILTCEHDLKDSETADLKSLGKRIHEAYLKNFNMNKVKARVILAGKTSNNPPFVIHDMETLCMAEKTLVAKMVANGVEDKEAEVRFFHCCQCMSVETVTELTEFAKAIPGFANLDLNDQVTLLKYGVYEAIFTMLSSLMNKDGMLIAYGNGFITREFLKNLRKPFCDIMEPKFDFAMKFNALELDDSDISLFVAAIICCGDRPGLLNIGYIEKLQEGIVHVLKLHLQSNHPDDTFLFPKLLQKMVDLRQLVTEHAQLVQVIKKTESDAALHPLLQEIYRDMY

[4] = target: T2, Peroxisome proliferator-activated receptor alpha (Mus musculus); test: In vivo agonist activity at PPARalpha in high fat diet-induced nonalcoholic steatohepatitis C57BL/6J mouse model assessed as increase in ACOX1 mRNA expression in liver administered at 3 mg/kg, po and measured after 24 hrs by quantitative real time PCR analysis; assay type: functional, organism-based
[5] = target: T2, Peroxisome proliferator-activated receptor alpha (Mus musculus); test: In vivo agonist activity at PPARalpha in high fat diet-induced nonalcoholic steatohepatitis C57BL/6J mouse model assessed as increase in Cyp4a3 mRNA expression in liver administered at 3 mg/kg, po and measured after 24 hrs by quantitative real time PCR analysis; assay type: functional, organism-based
Mus musculus [6] = test: Hypolipidemic activity in high fat diet-induced nonalcoholic steatohepatitis C57BL/6J mouse model assessed as reduction in plasma free fatty acid level at 3 mg/kg, po administered once daily via gavage for 7 days; assay type: functional; conditions: 168 h, time 7 day
[7] = target: T2, Peroxisome proliferator-activated receptor alpha (Mus musculus); test: In vivo agonist activity at PPARalpha in high fat diet-induced nonalcoholic steatohepatitis C57BL/6J mouse model assessed as transrepression of ApoC3 mRNA expression in liver administered at 3 mg/kg, po administered once daily for 7 days by quantitative real time PCR analysis; assay type: functional, organism-based; conditions: time 7.0 day
[8] = Toxicity in high fat diet-induced nonalcoholic steatohepatitis C57BL/6J mouse model assessed as increase in plasma glucose level at 3 mg/kg, po administered once daily for 7 days and measured after 4 days; assay type: organism-based; conditions: in vivo, 96 h, time 4 day
[9] = Toxicity in C57BL/6J mouse assessed as reduction in body weight measured after 72 hrs; conditions: in vivo
Mus musculus [10] = test: Hypolipidemic activity in high fat diet-induced nonalcoholic steatohepatitis C57BL/6J mouse model assessed as reduction in fat droplets in liver at 3 mg/kg, po administered once daily for 1 week by Oil Red O staining based assay; assay type: functional, organism-based; conditions: time 1.0 weeks

SMILES: COc1ccc(Cn2c(CCCc3ccc(OC(C)(C)C(=O)O)cc3)nn(Cc3ccc(C)cc3)c2=O)cc1
- EC50 [1]: 0.87 nM
- inhibition in vivo at 3 mg/kg (Mus musculus [2]): ≥ 50%
- Activity [3]: Active
- Activity [4]: Active
- Activity [5]: Active
- inhibition in vivo at 3 mg/kg (Mus musculus [6]): ≥ 60%
- Activity [7]: Active
- Activity [8]: Non-Toxic
- Activity [9]: Non-Toxic
- Activity (Mus musculus [10]): Active
